Test results: patent US7781421B2, “Neuroactive 13, 24-cyclo-18, 21-dinorcholanes and structurally related pentacyclic steriods” (Washington University, priority 2003, dated 2010)

What was measured:
[1] = target: T1, rat α1β2γ2 GABAA Receptor (Rattus norvegicus, UniProt P18508+P62813+P63138, INS375LLRMFSFK); experiment: Xenopus oocyte two-electrode voltage-clamp electrophysiology; format: cell-based; conditions: for Oocyte electrophysiology, ratio of currents in presence/absence of compound, 0.1 μM: 0.1 μM compound co-applied with 2 μM GABA; for Oocyte electrophysiology, ratio of currents in presence/absence of compound, 0.1 μM / Oocyte electrophysiology, ratio of currents in presence/absence of compound, 1 μM / Oocyte electrophysiology, ratio of currents in presence/absence of compound, 10 μM: −70 mV; for Oocyte electrophysiology, ratio of currents in presence/absence of compound, 1 μM: 1 μM compound co-applied with 2 μM GABA; for Oocyte electrophysiology, ratio of currents in presence/absence of compound, 10 μM: 10 μM compound co-applied with 2 μM GABA; for Gating (10 μM), ratio of compound only current/2 μM GABA current: direct current gated by 10 μM compound in the absence of GABA
T1 construct: from linearized pBluescript vectors containing receptor coding regions; expressed in transfected cells; host or cells: Xenopus laevis oocytes injected with in vitro transcribed capped mRNA
Method in brief: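 Oocytes injected with rat α1, β2, γ2L mRNA, voltage-clamped at −70 mV 2-5 days later in ND96. Compounds co-applied with 2 μM GABA for 20 s; peak current ratio with/without compound, n≥4 oocytes. (G): current from 10 μM compound alone, as ratio to 2 μM GABA current.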

Xenopus laevis tadpoles = experiment: Tadpole loss of righting (LRR) and swimming (LSR) reflexes; format: in vivo; conditions: 3 h equilibration at room temperature; for EC50: Xenopus laevis, 3 h, read-out: LSR EC50 (loss of swimming response)
Method in brief: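 Groups of 10 early prelimb-bud Xenopus laevis tadpoles were held for 3 h at room temperature in oxygenated Ringer's containing compound (DMSO ≤0.1%). Loss of righting was scored as failure to right within 5 sec after flipping, and loss of swimming as failure to swim when touched. EC50 came from a Hill equation fit.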

[2] = target: GABAA receptor ([35S]-TBPS binding site, rat brain cortical membranes); experiment: Displacement of [35S]-TBPS binding, rat brain cortical membranes; conditions: 5 μM GABA, 2 nM [35S]-TBPS; ± standard error of the means
Method in brief: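 Rat cortical P2 membranes (0.5 mg/mL protein) incubated 2 h at room temperature with 2 nM [35S]-TBPS, 5 μM GABA and steroid (1 nM–10 μM) in 200 mM NaCl/50 mM potassium phosphate, pH 7.4. Filter-bound radioactivity counted; IC50 from Hill equation fit, triplicate points.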

T1 sequence (P62813 28-455, stated change not applied): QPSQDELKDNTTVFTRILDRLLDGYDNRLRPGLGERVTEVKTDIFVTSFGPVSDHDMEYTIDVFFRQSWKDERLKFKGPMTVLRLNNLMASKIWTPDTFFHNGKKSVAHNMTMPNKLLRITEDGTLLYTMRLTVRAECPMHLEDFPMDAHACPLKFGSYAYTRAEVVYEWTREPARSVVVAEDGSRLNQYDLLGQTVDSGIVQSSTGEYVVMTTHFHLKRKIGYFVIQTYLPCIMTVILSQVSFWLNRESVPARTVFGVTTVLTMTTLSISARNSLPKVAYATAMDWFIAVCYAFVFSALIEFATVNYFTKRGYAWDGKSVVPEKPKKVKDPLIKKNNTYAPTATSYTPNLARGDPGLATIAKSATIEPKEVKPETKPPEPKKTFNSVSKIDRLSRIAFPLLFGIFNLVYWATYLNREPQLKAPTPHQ
T1 sequence (P63138 26-474, stated change not applied): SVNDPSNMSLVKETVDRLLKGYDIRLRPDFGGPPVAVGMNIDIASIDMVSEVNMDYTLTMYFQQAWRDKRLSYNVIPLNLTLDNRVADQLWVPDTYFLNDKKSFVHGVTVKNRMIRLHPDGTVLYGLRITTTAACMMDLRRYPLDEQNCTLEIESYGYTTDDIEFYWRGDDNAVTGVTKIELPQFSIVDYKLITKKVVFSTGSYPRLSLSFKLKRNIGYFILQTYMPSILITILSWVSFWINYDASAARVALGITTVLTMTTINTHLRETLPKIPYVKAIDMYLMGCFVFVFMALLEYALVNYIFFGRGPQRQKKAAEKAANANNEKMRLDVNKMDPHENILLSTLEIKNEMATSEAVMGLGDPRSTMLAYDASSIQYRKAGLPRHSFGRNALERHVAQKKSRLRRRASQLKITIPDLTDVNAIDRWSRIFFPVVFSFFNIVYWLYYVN
T1 sequence (P18508 with tags, fused parts or gaps INS375LLRMFSFK): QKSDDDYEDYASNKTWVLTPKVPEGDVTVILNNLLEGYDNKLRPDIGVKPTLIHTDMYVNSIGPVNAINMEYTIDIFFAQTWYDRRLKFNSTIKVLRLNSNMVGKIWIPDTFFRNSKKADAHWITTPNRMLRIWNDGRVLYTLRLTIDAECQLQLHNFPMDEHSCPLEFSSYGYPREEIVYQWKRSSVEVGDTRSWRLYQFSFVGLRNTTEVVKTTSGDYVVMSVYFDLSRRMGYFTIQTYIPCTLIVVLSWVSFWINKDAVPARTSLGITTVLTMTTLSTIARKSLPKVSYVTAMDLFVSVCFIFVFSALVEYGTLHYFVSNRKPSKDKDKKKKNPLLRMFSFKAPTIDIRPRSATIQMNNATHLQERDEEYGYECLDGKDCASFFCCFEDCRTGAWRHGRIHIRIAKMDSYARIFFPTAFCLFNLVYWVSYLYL

In the case of `C[C@]12CC[C@@H](O)C[C@@H]1CCC1C3CC[C@@H]4[C@]5(CCC[C@]34CCC12)CO5` (stereo partly drawn) [Compound 74, (3α,5α,20R)-20,21-Epoxy-13,24-cyclo-18-norcholan-3-ol], the melting point is reported as 206 to 211 °C (dec.), the “Oocyte electrophysiology, ratio of currents in presence/absence of compound, 0.1 μM” value [1] is reported as 1.61 ± 0.18 and the “Oocyte electrophysiology, ratio of currents in presence/absence of compound, 1 μM” value [1] is reported as 5.46 ± 1.21. For the same molecule, the “Oocyte electrophysiology, ratio of currents in presence/absence of compound, 10 μM” value [1] was 4.53 ± 0.75, the “Gating (10 μM), ratio of compound only current/2 μM GABA current” value (shortened to “Gating (10 μM), ratio”) [1] was −0.01 ± 0.01 and the “LRR ED50 (loss of righting response)” value (Xenopus laevis tadpoles) was greater than 10000 nM. The “LSR EC50 (loss of swimming response)” value (Xenopus laevis tadpoles) was “None @ 10” and the IC50 [2] was 64 ± 9 nM.
For `CC(=O)C1CCCC23CCC4C(CCC5CC(O)CCC54C)C2CCC13` [Compound 79, (3α,5α,20S)-1-[3-Hydroxy-13,24-cyclo-18,21-dinorcholan-20-yl]ethanone], the melting point was 187 to 189 °C, the “Oocyte electrophysiology, ratio of currents in presence/absence of compound, 0.1 μM” value [1] was 1.00 ± 0.08 and the “Oocyte electrophysiology, ratio of currents in presence/absence of compound, 1 μM” value [1] was 1.13 ± 0.15. For the same molecule, the “Oocyte electrophysiology, ratio of currents in presence/absence of compound, 10 μM” value [1] was 1.70 ± 0.12, the “Gating (10 μM), ratio” value [1] was −0.06 ± 0.04 and the “LRR ED50 (loss of righting response)” value (Xenopus laevis tadpoles) was “None @ 10”. For the same molecule, the “LSR EC50 (loss of swimming response)” value (Xenopus laevis tadpoles) was “None @ 10” and the IC50 [2] was 93 ± 9 nM.
With `CC(=O)C1CCCC23CCC4C(CCC5CC(O)CCC54C)C2CCC13` [Compound 80, (3α,5α,20R)-1-[3-Hydroxy-13,24-cyclo-18,21-dinorcholan-20-yl]ethanone] the melting point was 228 to 229 °C, the “Oocyte electrophysiology, ratio of currents in presence/absence of compound, 0.1 μM” value [1] was 0.85 ± 0.02 and the “Oocyte electrophysiology, ratio of currents in presence/absence of compound, 1 μM” value [1] was 0.77 ± 0.03. For the same molecule, the “Oocyte electrophysiology, ratio of currents in presence/absence of compound, 10 μM” value [1] was 0.93 ± 0.07, the “Gating (10 μM), ratio” value [1] was 0.01 ± 0.01 and the “LRR ED50 (loss of righting response)” value (Xenopus laevis tadpoles) was “None @ 10”. For the same molecule, the “LSR EC50 (loss of swimming response)” value (Xenopus laevis tadpoles) was “None @ 10” and the IC50 [2] was 2060 nM.
With `CC(=O)C1=CCCC23CCC4C(CCC5CC(O)CCC54C)C2CCC13` (stereo not drawn) [Compound 83, (3α,5α)-1-[3-Hydroxy-13,24-cyclo-18,21-dinorchol-20(22)-en-20-yl]ethanone] the melting point was 198 to 200 °C, the “Oocyte electrophysiology, ratio of currents in presence/absence of compound, 0.1 μM” value [1] was 0.89 ± 0.02 and the “Oocyte electrophysiology, ratio of currents in presence/absence of compound, 1 μM” value [1] was 0.86 ± 0.04. For the same molecule, the “Oocyte electrophysiology, ratio of currents in presence/absence of compound, 10 μM” value [1] was 1.15 ± 0.04, the “Gating (10 μM), ratio” value [1] was 0.00 ± 0.00 and the “LRR ED50 (loss of righting response)” value (Xenopus laevis tadpoles) was 7200 ± 6620 nM. For the same molecule, the “LSR EC50 (loss of swimming response)” value (Xenopus laevis tadpoles) was “None @ 10” and the IC50 [2] was 3190 nM.
With `CC12CCC(O)CC1CCC1C2CCC23CCC(=O)C2CCC13` (stereo not drawn) [Compound 89, (3α,5α)-3-Hydroxy-18,21-cyclopregnan-20-one] the melting point was 176 to 178.5 °C, the “Oocyte electrophysiology, ratio of currents in presence/absence of compound, 0.1 μM” value [1] was 0.81 ± 0.02 and the “Oocyte electrophysiology, ratio of currents in presence/absence of compound, 1 μM” value [1] was 1.02 ± 0.07. The “Oocyte electrophysiology, ratio of currents in presence/absence of compound, 10 μM” value [1] was 4.54 ± 0.64, the “Gating (10 μM), ratio” value [1] was 0.01 ± 0.00 and the “LRR ED50 (loss of righting response)” value (Xenopus laevis tadpoles) was 2630 ± 70 nM. For the same molecule, the EC50 (Xenopus laevis tadpoles) was 5480 ± 150 nM and the IC50 [2] was 204 ± 36 nM.
In the case of `CC12CCC(O)CC1CCC1C2CCC23C=CC(=O)C2CCC13` (stereo not drawn) [Compound 94, (3α,5α)-3-Hydroxy-18,21-cyclopregn-18(21)-en-20-one], the melting point is reported as 139 to 141 °C, the “Oocyte electrophysiology, ratio of currents in presence/absence of compound, 0.1 μM” value [1] is reported as 0.96 ± 0.02 and the “Oocyte electrophysiology, ratio of currents in presence/absence of compound, 1 μM” value [1] is reported as 1.41 ± 0.09. The “Oocyte electrophysiology, ratio of currents in presence/absence of compound, 10 μM” value [1] was 2.78 ± 0.13, the “Gating (10 μM), ratio” value [1] was −0.04 ± 0.02 and the “LRR ED50 (loss of righting response)” value (Xenopus laevis tadpoles) was 3370 ± 160 nM. The EC50 (Xenopus laevis tadpoles) was 9520 nM and the IC50 [2] was 745 ± 75 nM.
With `CC12CCC(O)CC1CCC1C2CCC23C=C(Br)C(=O)C2CCC13` (stereo not drawn) [Compound 95, (3α,5α)-21-bromo-3-hydroxy-18,21-cyclopregn-18(21)-en-20-one] the melting point was 220 to 222.5 °C, the “Oocyte electrophysiology, ratio of currents in presence/absence of compound, 0.1 μM” value [1] was 1.25 ± 0.08 and the “Oocyte electrophysiology, ratio of currents in presence/absence of compound, 1 μM” value [1] was 1.99 ± 0.20. The “Oocyte electrophysiology, ratio of currents in presence/absence of compound, 10 μM” value [1] was 8.75 ± 1.92, the “Gating (10 μM), ratio” value [1] was 0.02 ± 0.02 and the “LRR ED50 (loss of righting response)” value (Xenopus laevis tadpoles) was 290 ± 40 nM. For the same molecule, the EC50 (Xenopus laevis tadpoles) was 550 ± 90 nM and the IC50 [2] was 94 ± 17 nM.
For `CC12CCC(O)CC1CCC1C2CCC23CCC(=CC#N)C2CCC13` (stereo not drawn) [Compound 96, (3α,5α,20E)-3-Hydroxy-18,21-cyclopregnan-20-ylideneacetonitrile], the melting point was 201 to 202.5 °C, the “Oocyte electrophysiology, ratio of currents in presence/absence of compound, 0.1 μM” value [1] was 1.40 ± 0.21 and the “Oocyte electrophysiology, ratio of currents in presence/absence of compound, 1 μM” value [1] was 2.33 ± 0.30. For the same molecule, the “Oocyte electrophysiology, ratio of currents in presence/absence of compound, 10 μM” value [1] was 2.90 ± 0.29, the “Gating (10 μM), ratio” value [1] was 0.03 ± 0.03 and the “LRR ED50 (loss of righting response)” value (Xenopus laevis tadpoles) was 2770 ± 1160 nM. The “LSR EC50 (loss of swimming response)” value (Xenopus laevis tadpoles) was “None @ 10” and the IC50 [2] was 168 ± 32 nM.
For `CC12CCC(O)CC1CCC1C2CCC23CCC(=CC#N)C2CCC13` (stereo not drawn) [Compound 97, (3α,5α,20Z)-3-Hydroxy-18,21-cyclopregnan-20-ylideneacetonitrile], the melting point was 226 to 228 °C, the “Oocyte electrophysiology, ratio of currents in presence/absence of compound, 0.1 μM” value [1] was 0.88 ± 0.07 and the “Oocyte electrophysiology, ratio of currents in presence/absence of compound, 1 μM” value [1] was 0.87 ± 0.15. The “Oocyte electrophysiology, ratio of currents in presence/absence of compound, 10 μM” value [1] was 1.10 ± 0.08, the “Gating (10 μM), ratio” value [1] was −0.02 ± 0.06 and the “LRR ED50 (loss of righting response)” value (Xenopus laevis tadpoles) was greater than 10000 nM. The “LSR EC50 (loss of swimming response)” value (Xenopus laevis tadpoles) was “None @ 10” and the IC50 [2] was 17200 nM.
